Data taken from patent US9636380B2 (priority 2013, dated 2017).

Columns and labels:
[1] = tested on: AMPA receptor; experiment: Whole-cell recording of light-evoked EPSCs (LDT inputs) in DA neurons projecting to NAc lateral shell, midbrain slices; format: cell-based, mice; settings: 10 μM bath perfusion; stimulation of LDT fibers; −70 mV
Method: (§1) Mice were deeply anaesthetized with pentobarbital (200 mg/kg ip; Ovation Pharmaceuticals, Deerfield, Ill.). Coronal midbrain slices (250 μm) were prepared after intracardial perfusion with ice-cold artificial cerebrospinal fluid (ACSF) containing elevated sucrose (in mM): 50 sucrose, 125 NaCl, 25 NaHCO3, 2.5 KCl, 1.25 NaH2PO4, 0.1 CaCl2, 4.9 MgCl2, and 2.5 glucose (oxygenated with 95% O2/5% CO2). After 90 min of recovery, slices were transferred to a recording chamber and perfused continuously at 2-4 ml/min with oxygenated ACSF (125 NaCl, 25 NaHCO3, 2.5 KCl, 1.25 NaH2PO4, 11 glucose, 1.3 MgCl2, and 2.5 CaCl2) at ˜30° C. […]
(§2) Labeled DA neurons were visualized with a 40× water-immersion objective on an upright fluorescent microscope (BX51WI, Olympus USA) equipped with infrared-differential interference contrast (IR-DIC) video microscopy and epifluorescence (Olympus USA) for detection of retrobeads. […] A dual lamp house adapter (Olympus USA) was used to switch between fluorescence lamp and LED light source. Excitatory postsynaptic currents (EPSCs) were recorded in whole-cell voltage clamp (Multiclamp 700B, Molecular Devices, CA, USA), filtered at 2 KHz, digitized at 10 KHz (ITC-18 interface, HEKA) and collected on-line using custom Igor Pro software (Wavemetrics, Lake Oswego, Oreg., USA). […]

[2] = tested on: GABAA receptors; experiment: Whole-cell recording of light-evoked IPSCs (LHb inputs) in DA cells projecting to NAc lateral shell, midbrain slices; format: cell-based, mice; settings: 50 μM bath perfusion; LHb input stimulation; n=3; p<0.0001
Method: as §1, §2

Molecule	Effect on light-evoked EPSCs in DA neurons projecting to NAc lateral shell [1]	Effect on light-evoked IPSCs in DA cells projecting to NAc lateral shell [2]
N#Cc1cc2[nH]c(=O)c(=O)[nH]c2cc1[N+](=O)[O-] [CNQX]	blocked	
picrotoxin		blocked
